Data from patent US9006274B2, “Thiazole derivatives for treating dyskinesias caused by a chemical treatment” (Ipsen Pharma S.A.S., priority 2005, dated 2015).

How the values were obtained:
[1] = system: dyskinesias induced by L-DOPA in rats; experiment: Study of dyskinesias induced by L-DOPA (6-OHDA-lesioned dyskinetic rats), score of abnormal and involuntary movements; type: in vivo, rat; details: for effect on rats suffering from induced dyskinesia: oral 10 and 30 mg/kg, dose-dependent, statistically significant effectiveness
From the text: Principle of the In Vivo Test (Experimental Model with Dyskinetic Rats):
An animal model is produced where the dyskinesia is induced in animals treated with L-Dopa (3-(3,4-dihydroxyphenyl)-L-alanine). First of all in order to cause a reduction in the level of endogenous dopamine at the level of the striatum, lesions are produced in the rats using 6-hydroxydopamine (6-OHDA). Following this injection of 6-OHDA, these animals become sensitive to the side-effects of L-dopa. In fact in order to remedy this endogenous dopamine deficiency, the rats receive an L-Dopa based treatment. […] The dyskinesia thus induced is evaluated by a statistical behaviour test.
In fact the L-Dopa passes through the hematoencephalic barrier with difficulty and therefore it can be decarboxylated at the peripheral level.
The study was carried out on young male rats. The rats are anaesthetized (chloral 400 mg/kg). Then they receive 2 stereotaxic injections of 6 μg of 6-hydroxydopamine in the left striatum using a 10 μl Hamilton microsyringe. The rats receive in fine 12 μg of 6-OHDA dissolved in 4 μl of 0.02% L-ascorbate. Four weeks later the lesion to the locus niger is produced in the rats. In order to quantify this lesion, an indirect measurement is used: the rotations induced by apomorphine (substance test). The animals receive a sub-cutaneous injection of 0.5 mg/kg of apomorphine and the right and left rotations of the animals are measured over 30 minutes. A net rotational asymmetry score is then determined. This score is expressed as the number of complete turns in the test cage/minute in the contralateral direction of the lesion.
Six weeks after the 6-hydroxydopamine (6-OHDA) lesions, the selected rats receive a daily intraperitoneal injection of L-Dopa methylester at a dose of 20 mg/kg and benserazide at a dose of 15 mg/kg. The injections take place from week 6 to week 9. From week 10, the rats receive a more concentrated dose: each day they receive an intraperitoneal injection of L-Dopa methylester at a dose of 25 mg/kg and benserazide at a dose of 15 mg/kg. From week 11, the rats receive two daily injections of L-Dopa methylester at a dose of 15 mg/kg and benserazide at a dose of 15 mg/kg. During week 11, the rats are evaluated 3 times per week for their level of abnormal and involuntary movements in order to determine whether the administered doses are sufficient to cause a dyskinesia in these animals. The rats are observed individually from 30 minutes to 180 minutes after injection of the L-Dopa; they are observed every 30 minutes. The movements which are observed at that time are considered to be dyskinetic movements when they meet the following criteria: • the movements are induced by the L-Dopa; • the movements affect the side of the body in the contralateral direction of the lesion; • the movements are repetitive, involuntary and cannot be attributed to normal behaviour.
The abnormal and involuntary movements are classified in 4 sub-types: • locomotive dyskinesia: increase in locomotion of the side contralateral to the lesion; • axial dystonia: deviation of the posture of the neck and of the upper part of the body; • oromandibular dyskinesia: stereotypical movements of the jaws and protrusion of the tongue; • dyskinesia of the anterior limbs: repetitive and rhythmic jerking of the anterior limbs accompanied by a dystonic posture and/or strong grasping movements of the paws.
For each of these sub-types, the rats are marked on a scale of 0 to 4, knowing that: • 0=no movement, • 1=occasional movements, • 2=frequent movements, • 3=continuous movements but interrupted by a sensory distraction, • 4=continuous, acute movements, not interrupted by a sensory distraction.
The compounds according to the invention are tested in order to determine their ability to modulate the effects of the L-Dopa.

[2] = system: tardive orofacial dyskinesia caused by haloperidol in rats; experiment: Study of tardive dyskinesia in rats treated with a neuroleptic (haloperidol) over a long period, count of tongue protrusions and mastication movements; type: in vivo, rat; details: for effect on rats suffering from tardive dyskinesia and tardive orofacial dyskinesia caused by haloperidol: oral 10 and 30 mg/kg, dose-dependent effectiveness
From the text: Principle of the In Vivo Test (Experimental Model with Rats): […] dyskinesia is a complication resulting from prolonged treatment with for example neuroleptics. It is characterized by repetitive, involuntary movements of the mouth, face and tongue. Long-term treatment with neuroleptics can lead to oromandibular dyskinesia, in particular it can lead to movements of mastication and protrusion of the tongue in rats. The principle of the test is to quantify the abnormal movements of the animals in a test cage during a determined time window (5 minutes). A neuroleptic, haloperidol (originating from Sigma®), is administered over a long period to rats using an Alzet® osmotic pump. This osmotic pump (reference 2ML4 Alzet®) is filled with a solution of haloperidol at 10 mg/ml. This pump is implanted subcutaneously in rats weighing between 150 g and 160 g. After anaesthesia of the rats with isoflurane, a small incision is made in the skin at the level of the scapulae to allow insertion of the pump. Then the incision is sutured. The pump makes it possible to continuously administer haloperidol to the rats at a dose of 2 mg/kg/day for 28 days. […] Before the treatment (t=0) with the compounds to be tested, the rats are placed individually in plastic test cages. […] Results: The rate of protrusion of the tongue and mastication movements is calculated statistically for each group of rats. […] The results presented were obtained with 8 tested animals.

[3] = 30 mg/kg orally, 120 minutes after the administration of L-Dopa, control (water) 12 (compound 1) and 12.9 (compound 2)
[4] = 30 mg/kg orally, after 180 minutes of treatment, reduced from 11.3 (compound 1) and from 13.8 (compound 2)

| SMILES | score of abnormal and involuntary movements (dyskinesia score, maximum 16 points) [1, 3] | score of abnormal and involuntary movements (dyskinesia score, maximum 16 points) [1, 4] | effect on rats suffering from induced dyskinesia [1] | score of chewing movements ([2]; 10 mg/kg orally, counted for 5 minutes, reduced from 30.3) | score of chewing movements ([2]; 30 mg/kg orally, counted for 5 minutes, reduced from 35.6) | effect on rats suffering from tardive dyskinesia and tardive orofacial dyskinesia caused by haloperidol [2] | score of abnormal and involuntary movements (dyskinesia score, maximum 16 points) ([1]; 10 mg/kg orally, after 180 minutes of treatment, reduced from 13) | rate of protrusion of the tongue ([2]; 10 mg/kg orally, after 3 hours, counted for 5 minutes, reduced from 11.4) | rate of protrusion of the tongue ([2]; 30 mg/kg orally, after 3 hours, counted for 5 minutes, reduced from 15) | number of mastication movements ([2]; 30 mg/kg orally, after 3 hours, counted for 5 minutes, reduced from 35.5) |
| --- | --- | --- | --- | --- | --- | --- | --- | --- | --- | --- |
| CC(C)(C)c1cc(-c2csc(CN)n2)cc(C(C)(C)C)c1O.Cl [Compound 1, 4-[2-(aminomethyl)-1,3-thiazol-4-yl]-2,6-di(tert-butyl)phenol hydrochloride or dihydrochloride] | 10 points | 9.6 points | anti-dyskinetic effect | 21 | 11.9 | anti-dyskinetic effect |  |  |  |  |
| C[C@@H](N)c1nc(-c2cc(C(C)(C)C)c(O)c(C(C)(C)C)c2)cs1.Cl [Compound 2, 4-{2-[(1R)-1-aminoethyl]-1,3-thiazol-4-yl}-2,6-di-tert-butylphenol hydrochloride] | 9.7 points | 9 points | anti-dyskinetic effect |  |  | anti-dyskinetic effect | 10.6 points | 5 | 6 | 23.7 |
